The source of these data is PubChem BioAssay (NCI).

Test in all cases: NCI anticancer screen, dose series, 48 h
In test [1] the test system is HCT-116 colon.
Test [2] concerns HCT-15 colon.
Test [3] concerns IGROV1 ovarian.
Test [4] has as its system NCI-H226 lung.
The subject of test [5] is OVCAR-5 ovarian.
Test [6] concerns RXF 393 renal.
For test [7], the system named is SF-268 CNS.
In test [8] the test system is SK-MEL-2 melanoma.
Test [9] deals with SN12C renal.
For test [10], the system named is UACC-62 melanoma.

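Following 48 hours of exposure in 96-well plates, responses at five concentrations were used to interpolate endpoints linearly. GI50 is the concentration that inhibits growth by half. TGI denotes the concentration required for complete inhibition of growth.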

Turning to `COc1ccccc1C1C(C#N)=C(N)Oc2n[nH]c(C)c21` (stereo unspecified), the GI50 in [1] is 90.7 µM; in [2], greater than 100000 nM; in test [3] it was 37.7 µM; in [4] it was 74.5 µM; in test [5], greater than 100000 nM; in [6] it was greater than 100000 nM. The results for the GI50 in [7], in test [8] and in [9] were greater than 100000 nM, greater than 100 µM and 14.8 µM, respectively. Moreover, the TGI in [1] was greater than 100 µM; in test [2] it was greater than 100 µM; in test [3], 95.7 µM; in test [4], greater than 100 µM; in test [5], greater than 100 µM; in test [6] it was greater than 100 µM. For the same compound, the TGI in [7], in [8] and in test [9] was greater than 100 µM each time.
For the compound `COc1nc(C#CC2CCCCC2)nc(OC)n1`, the TGI amounted to 10.2 µM in test [1]; 5.97 µM in test [2]; 14 µM in test [3]; 12.3 µM in [5]; 19.1 µM in test [6]; 20.4 µM in test [7]. Moreover, the values for the TGI in [8], in [9] and in test [10] were 13.1 µM, 11.1 µM and 4.38 µM, respectively.
For `CCOC1=C(c2ccccc2)N2CCCCC2O1` (stereo unspecified), the TGI is 15.2 µM in test [1]; 98.6 µM in [2]; greater than 51.4 µM in test [3]; 32.5 µM in test [4]; greater than 59.2 µM in test [5]; 37.4 µM in test [6]. The TGI in test [7] is 48.1 µM; in [8] it was 7.99 µM; in test [9] it was greater than 41.9 µM; in test [10] it was 10 µM.
As for `C#CCOC(=O)c1ccc(OC(C)=O)cc1`, the TGI in test [1], in test [2], in test [3], in test [4], in [5] and in [6] was greater than 100 µM in each case. For the same compound, the TGI in test [7], in test [8], in [9] and in test [10] was greater than 100 µM throughout.
`Clc1cc(Cl)ncn1`: the TGI in test [1], in [2], in test [3], in [4], in test [5] and in test [6] was greater than 100 µM each time. Moreover, the TGI in test [7], in test [9] and in test [10] was greater than 100 µM throughout.
In the case of `Cc1c([C@H](C)[C@@H]2NC[C@@H](C)C[C@H]2O)ccc2c1C[C@H]1[C@H]2CC=C2C[C@@H](O)CC[C@@]21C`, the TGI in test [1] came to 30.6 µM; in test [2] it was 57 µM; in test [3], 43.9 µM; in [4], 38.1 µM; in test [5], 90.8 µM; in test [6], 48.2 µM. Further, the results for the TGI in test [7], in test [9] and in test [10] were greater than 100 µM, 69.5 µM and 28.1 µM, respectively.
Turning to `CC1=CCC[C@H]2[C@](C)(CC3=CC(=O)C(SCC(C)C)=CC3=O)[C@@H](C)CC[C@]12C`, the TGI in [1] was found to be 24.8 µM; in test [2], 31.8 µM; in test [3], 22.9 µM; in test [4], 28.9 µM; in test [5] it was 40.9 µM; in [6], 26.1 µM. The TGI in [8] was 31 µM; in [9] it was greater than 57.5 µM; in [10], 28.8 µM.
Take `S=C1SC(=Nc2ccccc2)C(=Nc2ccccc2)N1c1ccc2ccccc2c1`: the TGI in test [1], in test [2], in [3], in test [4], in [5] and in test [6] was greater than 100 µM each time. The TGI in test [8], in [9] and in test [10] was greater than 100 µM throughout.
As to `NC(N)=NC1C(O)C(O)C(O)C(N=C(N)N)C1O` (stereo unspecified), the TGI in test [1], in test [2], in test [3], in [5], in test [6] and in [7] was greater than 100 µM throughout. In addition, the TGI in test [8], in test [9] and in test [10] was greater than 100 µM in each case.
With `CC(C)(C)C1=C(Br)C(O)(C(C)(C)C)OP1(=O)c1ccccc1` (stereo unspecified), the TGI in [2], in [3], in [5], in test [6], in [7] and in test [8] was greater than 100 µM each time. The TGI in [9] and in [10] was greater than 100 µM each time.
In the case of `O=C1/C(=C/c2cccc3ccccc23)CCc2ccc([N+](=O)[O-])cc21`, the TGI is 71 µM in test [1]; greater than 100 µM in test [2]; greater than 100 µM in [3]; greater than 100 µM in [4]; greater than 100 µM in [5]; 88.8 µM in test [6]. For the same compound, the TGI was greater than 100 µM in [7], greater than 100 µM in [9] and 65.8 µM in test [10].
As for `COC(=O)Cn1cnc2c(Cl)nc(Nc3ccccc3)nc21`, the TGI is greater than 100 µM in test [1]; 80.4 µM in [2]; 56.1 µM in [3]; greater than 100 µM in test [4]; greater than 100 µM in test [6]; 48.8 µM in [8]. For the same compound, the TGI in test [9] was greater than 100 µM; in test [10], 67.2 µM.
Consider `COc1ccc(C(=O)/C=C/c2cc(-c3cc(OC)c(OC)c(OC)c3)n[nH]2)cc1`, for which the GI50 in test [1] was 1.73 µM; in [2], 1580 nM; in [3], 2.21 µM; in test [5] it was 1880 nM; in [6], 1270 nM; in test [7], 1990 nM. In addition, the GI50 in test [8] is 4.14 µM. The TGI amounted to 5.86 µM in test [1]; 4.37 µM in test [2]; 4.81 µM in test [3]; 3.78 µM in test [5]; 2.56 µM in [6]; 5.12 µM in test [7]. Also, the TGI in test [8] was determined as 19.6 µM.
